Experimental data from the supplement of paper PMC5579334.

What was measured:
S462 = test: relative IC50 (inflection point of fitted dose-response curve, CellTiter-Glo viability, 72 h; top asymptote may be below 50% inhibition); higher = less potent
Procedure, shortened: (§1)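 MPNST cell lines and primary human Schwann cells (750–1000 cells per well) went into 384-well plates preprinted with each compound at five concentrations in 10-fold steps. Plates were incubated 72 h at 37 °C, 5% CO2. Viability was read as CellTiter-Glo ATP luminescence, scaled between vehicle and positive-control wells, with duplicates averaged where present. Percent inhibition is at the top concentration; drug sensitivity score and relative IC50 (censored at top concentration) come from four-parameter logistic fits.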

HS-Sch-2 = test: as above
Procedure, shortened: as §1

HSC1 [1] = test: as above
Procedure, shortened: as §1

YST-1 = test: as above
Procedure, shortened: as §1

HS-PSS [2] = test: as above
Procedure, shortened: as §1

HSC2 [3] = test: relative IC50 (inflection point of fitted dose-response curve, CellTox-Green cytotoxicity, 72 h; top asymptote may be below 50%); higher = less potent
Procedure, shortened: (§2)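 MPNST cell lines and primary human Schwann cells were incubated 72 h at 37 °C in 384-well plates holding five 10-fold compound dilutions. CellTox-Green was added before seeding at a final 1:1000 dilution and reported fluorescence from DNA released by disrupted cells. Signals were scaled to vehicle and positive-control wells, and cultures failing plate quality control were dropped. Drug sensitivity score and relative IC50 come from four-parameter logistic fits, with IC50 censored at the top concentration.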

STS26T [4] = test: as above
Procedure, shortened: as §2

HSC1 [5] = test: as above
Procedure, shortened: as §2

ST8814 [6] = test: as above
Procedure, shortened: as §2

HS-PSS [7] = test: as above
Procedure, shortened: as §2

HSC2 [8] = test: relative IC50 (inflection point of fitted dose-response curve, CellTiter-Glo viability, 72 h; top asymptote may be below 50% inhibition); higher = less potent
Procedure, shortened: as §1

ST8814 [9] = test: as above
Procedure, shortened: as §1

S1507-2 = test: as above
Procedure, shortened: as §1

STS26T [10] = test: as above
Procedure, shortened: as §1

SMILES | relative IC50 (S462) [nM] | relative IC50 (HS-Sch-2) [nM] | relative IC50 (HSC1 [1]) [nM] | relative IC50 (YST-1) [nM] | relative IC50 (HS-PSS [2]) [nM] | relative IC50 (HSC2 [3]) [nM] | relative IC50 (STS26T [4]) [nM] | relative IC50 (HSC1 [5]) [nM] | relative IC50 (ST8814 [6]) [nM] | relative IC50 (HS-PSS [7]) [nM] | relative IC50 (HSC2 [8]) [nM] | relative IC50 (ST8814 [9]) [nM] | relative IC50 (S1507-2) [nM] | relative IC50 (STS26T [10]) [nM]
CC1=C(/C=C/C(C)=C/C=C/C(C)=C/C(=O)O)C(C)(C)CCC1 [Tretinoin] | > 10000 | > 10000 | 361 | > 10000 | > 10000 | > 10000 | > 10000 | > 10000 | > 10000 | > 10000 |  |  |  | 
Nc1ncnc2c1c(COc1cccc(Cl)c1)nn2C1CCOCC1 | > 10000 |  |  | > 10000 | > 10000 | > 10000 | > 10000 | > 10000 | > 10000 | > 10000 | > 10000 | > 10000 |  | 
CC/C(=C(\c1ccccc1)c1ccc(OCCN(C)C)cc1)c1ccccc1 [Tamoxifen] |  | 2300 |  | 3250 | 3900 | > 10000 |  | > 10000 | 2490 | > 10000 | 3370 | 3340 | 3950 | 
CN(C)C/C=C/C(=O)Nc1cc2c(Nc3ccc(F)c(Cl)c3)ncnc2cc1O[C@H]1CCOC1 [Afatinib] | > 1000 |  | > 1000 | > 1000 | 148 | > 1000 | > 1000 | > 1000 | > 1000 | > 1000 | > 1000 | > 1000 |  | > 1000
CC(C)C[C@@H](C(=O)N[C@H](C(=O)OC1CCCC1)c1ccccc1)[C@H](O)C(=O)NO [Tosedostat] | 424 | 258 | 138 | 222 | 3270 | > 10000 | 25.3 | > 10000 |  | > 10000 | 76.1 | 1240 |  | 81.4
CC1=NN(c2ccc(C(=O)O)cc2)C(=O)C1=Cc1ccc(-c2cc(C)c(C)cc2[N+](=O)[O-])o1 [C646] |  | > 25000 | > 25000 |  |  | 9180 | > 25000 | > 25000 | > 25000 | > 25000 | > 25000 | > 25000 |  | > 25000
Nc1ncn([C@H]2C[C@H](O)[C@@H](CO)O2)c(=O)n1 [Decitabine] | 273 | 782 |  | > 10000 | > 10000 | > 10000 | > 10000 | > 10000 | > 10000 | > 10000 | 2260 |  |  | 
CCC/C=C/C=C/C(=O)O[C@H]1/C(=C/C(=O)OC)C[C@H]2C[C@H]([C@@H](C)O)OC(=O)C[C@H](O)C[C@@H]3C[C@H](OC(C)=O)C(C)(C)[C@](O)(C[C@@H]4C/C(=C/C(=O)OC)C[C@H](/C=C/C(C)(C)[C@]1(O)O2)O4)O3 [Bryostatin 1] |  | 0.41 | > 100 | > 100 |  | > 100 | > 100 | > 100 | > 100 | > 100 | > 100 | > 100 |  | 
COc1cc2c(Oc3ccc4[nH]c(C)cc4c3F)ncnc2cc1OCCCN1CCCC1 [Cediranib] | > 1000 | > 1000 |  | > 1000 |  |  | > 1000 | > 1000 |  | > 1000 | > 1000 | > 1000 |  | > 1000
O=C(c1cc(Cc2n[nH]c(=O)c3ccccc23)ccc1F)N1CCN(C(=O)C2CC2)CC1 [Olaparib] | 2000 | 1360 | 1670 | 426 |  |  | 3430 | > 10000 | 3360 | > 10000 | 1340 | 3540 |  | 2330
CN1CCC(COc2cnc(-c3cccc(Cn4nc(-c5cccc(C#N)c5)ccc4=O)c3)nc2)CC1 |  | > 1000 | > 1000 | > 1000 | > 1000 | > 1000 |  | > 1000 | > 1000 | > 1000 | > 1000 | > 1000 |  | 
CCN1CCN(c2ccc(Nc3cc(N(C)C(=O)Nc4c(Cl)c(OC)cc(OC)c4Cl)ncn3)cc2)CC1 [NVP-BGJ398] | > 1000 | > 1000 | > 1000 | > 1000 | > 1000 | > 1000 | > 1000 | > 1000 | > 1000 | > 1000 | > 1000 |  |  | > 1000
C=C(c1ccc(C(=O)O)cc1)c1cc2c(cc1C)C(C)(C)CCC2(C)C [Bexarotene] | > 10000 | > 10000 |  | > 10000 | > 10000 | > 10000 | > 10000 | > 10000 | > 10000 | > 10000 | > 10000 | > 10000 |  | > 10000
CCN(CC)CCNC(=O)c1c(C)[nH]c(/C=C2\C(=O)Nc3ccc(F)cc32)c1C [Sunitinib] |  | > 1000 | > 1000 | > 1000 |  | > 1000 | > 1000 | > 1000 | > 1000 | > 1000 | > 1000 |  |  | > 1000
Nc1nc(Cl)nc2c1ncn2[C@H]1C[C@H](O)[C@@H](CO)O1 [Cladribine] |  | 351 | 151 | 321 | 366 | 319 |  | 350 |  |  | 174 |  |  | 226
